The test concerns Human Pan T Cell (IL-2 release). The test can be described thus: IL2 released by human pan T cell upon anti-CD3/anti-CD28 stimulation (ELISA). To be noted: human pan T cells; for EC (2-fold response) / maximal fold induction: 48 h; for EC (2-fold response) / EC2x (nM): concentration of compound that gives 200% IL-2 response (2 folds) over DMSO control; for maximal fold induction / IL-2 Max Fold Response: response of IL-2 over DMSO control, anti-CD3/anti-CD28, 48 hours, ELISA; for maximal fold induction: read-out: IL-2 Max Fold Response; for pEC50: IL-2 response, calculated with GraphPad Prism. It is filed as cell-based. The source says: For example, Example 5 describes such a functional assay for determining the effect of an HPK1 inhibitor on IL-2 & IFN-γ release upon stimulation of Pan T cells. The secreted IL-2 & IFN-γ can be measured/quantified by standard ELISA assay. Briefly, pan T cells can be isolated from peripheral blood (PB) mononuclear cells (MNCs), or PBMC, using commercially available kits, such as MACS (Miltenyl Biotec) Pan T isolation kit (Cat. No. 130-096-535). Primary human pan-T cells include CD4 and CD8 T cells as well as some gamma/delta T cell subsets. The pan-T cells can be isolated using the negative immunomagnetic separation technique without the use of columns.
Isolated pan-T cells can be dispensed into 96-well plates at 100,000 cells/well, and stimulated with immobilized anti-CD3 antibody and soluable anti-CD28 antibody, or PMA/Ionomycin as the positive control (or culture media as the negative control). Different concentrations of test compounds can be added to the cells to assess the compound effect on cytokine secretion following TCR-stimulation/CD28 co-stimulation. Stimulated cells are incubated for 2 more days, before the supernatant (containing secreted cytokines by pan-T cells) is collected from each well for ELISA assay and quantitation of IL-2 and IFN-γ.
Biology Example 8 Compound Efficacy Study on IL2 & IFN-γ Released by Human Pan T Cell
This example is an assay method that can be used to determine compound effects on IL2 & IFN-γ release using pan T cells and ELISA assay format.
3. Procedures Procedures for Pan T isolation and Reagent preparation (Day 0): 1. Cell Growth Medium: • RPMI1640: ATCC, Cat #30-2001 • 10% FBS: Gibco, Cat #10099141 • 1% Pen-Strep: Gibco, Cat #15140122 • 1% Non-essential amino: Gibco, Cat #11140050 • Beta-Mercaptoethanol: Gibco, Cat #21985023 2. Pan T Isolation Buffer Preparation:
Prepare a solution containing phosphate-buffered saline (PBS), pH 7.2, 0.5% bovine serum albumin (BSA), and 2 mM EDTA by diluting MACS® BSA Stock Solution (#130-091-376) 20 times with autoMACS® Rinsing Solution. Keep buffer at 4° C. Degas buffer before use, as air bubbles could block the column.
3. Thawing of Frozen PBMC • 1) Pre-heat medium at 37° C. water bath. • 2) Rapidly thaw cells in 37° C. water bath. • 3) Add the pre-warmed medium into 15 mL tube. Transfer cells to the tube. • 4) 300×g centrifuge for 8 min. (centrifuge increase 0, decrease 0). • 5) Wash the PBMC using Rinsing buffer. • 6) Centrifuge PBMC at 300×g for 8 min, wash it twice (centrifuge increase 9, decrease 1). • 7) Resuspend the cells with Pan T cells isolation buffer and count cells number. 4. Pan T Cells Isolation: Cell Staining with Microbead Cocktail • 1) Prepare cells and determine cell number. Filter cells by 70 μm cell strainer. • 2) Resuspend cell pellet in 40 μL of buffer per 10^7 total cells. • 3) Add 10 μL of Pan T Cell Biotin-Antibody Cocktail per 10^7 total cells. • 4) Mix well and incubate for 10 minutes in the refrigerator (ice). • 5) Add 30 μL of buffer per 10^7 total cells. • 6) Add 20 μL of Pan T Cell MicroBead Cocktail per 10^7 total cells. • 7) Mix well and incubate for 15 minutes in the refrigerator (ice). • 8) Proceed to subsequent magnetic cell separation. • Note: a. Work fast, keep cells cold, and use pre-cooled solutions (2-8° C.). b. Volumes for magnetic labeling given are for up to 10′ total cells. When working with fewer cells, use the same volumes as indicated. c. When working with higher cell numbers, scale up all reagent volumes and total volumes accordingly. d. For optimal performance it is important to obtain a single-cell suspension before magnetic labeling. Subsequent Manual Cell Separation: • 1) Place LS Column in the magnetic field of a suitable MACS Separator. For details refer to the respective MACS Column data sheet. • 2) Prepare column by rinsing with 3 mL of buffer. • 3) Apply cell suspension onto the column. Collect flow-through, which represents the enriched T cells. • 4) Wash column with 5 mL of buffer. […]

We go through 22 compounds from US12612424B2, “HPK1 inhibitors and uses thereof” (Regor Pharmaceuticals, Inc., priority 2019, dated 2026).

Broadly, the pEC50 is the negative decadic logarithm of the EC50, by convention in mol/L.

pEC50: −log10 of the molar value. A value given as a limit tells only on which side of the number the result lay.

As for `COc1cc2c(cc1Nc1ncc(Cl)c(N3CC(C(=O)O)c4ccccc43)n1)CN(C)CC2` (single isomer, unassigned) [Example 96], for the setting “Homo sapiens, T-cell”, the EC (2-fold response) lay within 0.1 to 0.5 µM, the maximal fold induction was more than 2 and the pEC50 was 6.30 to 7.00.
For the compound `COc1cc2c(cc1Nc1ncc(Cl)c(N3C[C@](C)(C(=O)O)c4ccccc43)n1)CN(C)CC2` (single isomer, unassigned) [Example 118], where the note is “Homo sapiens, T-cell”, the maximal fold induction is less than 2 and the pEC50 is less than 6.00.
With `COc1cc2c(cc1Nc1ncc(Cl)c(N3C[C@@](C)(C(=O)O)c4ccccc43)n1)CN(C)CC2` (single isomer, unassigned) [Example 119], where the note is “Homo sapiens, T-cell”, the EC (2-fold response) was not above 0.1 µM, the maximal fold induction is more than 2 and the pEC50 was not below 7.00.
Turning to `COc1cc2c(cc1Nc1ncc(Cl)c(N3CC(C)(CC(=O)O)c4ccccc43)n1)CN(C)CC2` (single isomer, unassigned) [Example 147], the pEC50 is 6.00 to 6.30. Besides, the maximal fold induction (Homo sapiens, T-cell) is less than 2.
Consider `COc1cc2c(cc1Nc1ncc(Cl)c(N3CC(C)(CC(=O)O)c4ccccc43)n1)CN(C)CC2` (single isomer, unassigned) [Example 148], for which the pEC50 was not below 7.00 and the “IL-2 Max Fold Response” value is listed as more than 2. For the same compound, the EC (2-fold response) (Homo sapiens, T-cell) is not above 0.1 µM.
Regarding `COc1cc2c(cc1Nc1ncc(Cl)c(N3CC(C)(CC(=O)O)c4ccc(F)cc43)n1)CN(C)CC2` (single isomer, unassigned) [Example 152], where the note is “Homo sapiens, T-cell”, the EC (2-fold response) was not above 0.1 µM, the maximal fold induction was more than 2 and the pEC50 was not below 7.00.
For the compound `COc1cc2c(cc1Nc1ncc(Cl)c(N3CC(C)(CC(=O)O)c4ccc(F)cc43)n1)CN(C)CC2` (single isomer, unassigned) [Example 153], the pEC50 is 6.30 to 7.00; the “EC2x (nM)” value is “+++ (“+++”, for higher values than “++++” but less than or equal to 500 nM)”; the “IL-2 Max Fold Response” value was more than 2.
`COc1cc2c(cc1Nc1ncc(Cl)c(-n3ccc4ccccc43)n1)CN(C)CC2` [Example 2, N-(5-chloro-4-(1H-indol-1-yl)pyrimidin-2-yl)-6-methoxy-2-methyl-1,2,3,4-tetrahydroisoquinolin-7-amine]: the maximal fold induction (Homo sapiens, T-cell) is less than 2.
Take `COc1cc2c(cc1Nc1ncc(Cl)c(N3CCc4ccccc43)n1)CN(C)CC2` [Example 4, N-(5-Chloro-4-(indolin-1-yl)pyrimidin-2-yl)-6-methoxy-2-methyl-1,2,3,4-tetrahydroisoquinolin-7-amine]: for the setting “Homo sapiens, T-cell”, the EC (2-fold response) fell in the range of 0.1 to 0.5 µM, the maximal fold induction is more than 2 and the pEC50 was 6.30 to 7.00.
As to `COc1cc2c(cc1Nc1ncc(Cl)c(-n3cc(C(=O)N(C)C)c4ccccc43)n1)CN(C)CC2` [Example 8], under “Homo sapiens, T-cell”, the maximal fold induction was less than 2.
Take `COc1cc2c(cc1Nc1ncc(Cl)c(-n3cnc4ccccc43)n1)CN(C)CC2` [Example 9, N-(4-(1H-benzo[d]imidazol-1-yl)-5-chloropyrimidin-2-yl)-6-methoxy-2-methyl-1,2,3,4-tetrahydroisoquinolin-7-amine]: the “EC2x (nM)” value was “++ (“++”, for higher values than “+++” but less than or equal to 1 μM)”. Besides, where the note is “Homo sapiens, T-cell”, the maximal fold induction was more than 2 and the negative-log EC50 (pEC50) was 6.30 to 7.00.
With `COc1cc2c(cc1Nc1ncc(C(F)(F)F)c(-n3ccc4ccccc43)n1)CN(C)CC2` [Example 10, N-(4-(1H-indol-1-yl)-5-(trifluoromethyl)pyrimidin-2-yl)-6-methoxy-2-methyl-1,2,3,4-tetrahydroisoquinolin-7-amine], for the setting “Homo sapiens, T-cell”, the maximal fold induction is less than 2.
As to `COc1cc2c(cc1Nc1ncc(Cl)c(N3CCc4cc(Cl)ccc43)n1)CN(C)CC2` [Example 13, N-(5-chloro-4-(5-chloroindolin-1-yl)pyrimidin-2-yl)-6-methoxy-2-methyl-1,2,3,4-tetrahydroisoquinolin-7-amine], for the setting “Homo sapiens, T-cell”, the maximal fold induction is less than 2 and the pEC50 is less than 6.00.
Take `CN1CCc2ccc(Nc3ncc(Cl)c(N4CCc5ccccc54)n3)cc2C1` [Example 14, N-(5-Chloro-4-(indolin-1-yl)pyrimidin-2-yl)-2-methyl-1,2,3,4-tetrahydroisoquinolin-7-amine]: the maximal fold induction (Homo sapiens, T-cell) was less than 2.
For the compound `CN1CCc2cc(Cl)c(Nc3ncc(Cl)c(N4CCc5ccccc54)n3)cc2C1` [Example 15, 6-Chloro-N-(5-chloro-4-(indolin-1-yl)pyrimidin-2-yl)-2-methyl-1,2,3,4-tetrahydroisoquinolin-7-amine], the “EC2x (nM)” value is given as “+ (“+”, for greater than 1 μM)”. Also, for the setting “Homo sapiens, T-cell”, the maximal fold induction was more than 2 and the pEC50 is less than 6.00.
As for `COc1cc2c(cc1Nc1ncc(Cl)c(N3CCc4ncccc43)n1)CN(C)CC2` [Example 16, N-(5-chloro-4-(2,3-dihydro-1H-pyrrolo[3,2-b]pyridin-1-yl)pyrimidin-2-yl)-6-methoxy-2-methyl-1,2,3,4-tetrahydroisoquinolin-7-amine], for the setting “Homo sapiens, T-cell”, the maximal fold induction is less than 2 and the negative-log EC50 (pEC50) was 6.30 to 7.00.
The matching figures for `COc1cc2c(cc1Nc1ncc(Cl)c(N3CCc4ccc(Cl)cc43)n1)CN(C)CC2` [Example 18, N-(5-chloro-4-(6-chloroindolin-1-yl)pyrimidin-2-yl)-6-methoxy-2-methyl-1,2,3,4-tetrahydroisoquinolin-7-amine]: less than 2 and 6.30 to 7.00.
Consider `COc1cc2c(cc1Nc1ncc(Cl)c(N3CC(S(C)(=O)=O)c4ccccc43)n1)CN(C)CC2` (centres unmarked) [Example 81, N-(5-chloro-4-(3-(methylsulfonyl)indolin-1-yl)pyrimidin-2-yl)-6-methoxy-2-methyl-1,2,3,4-tetrahydroisoquinolin-7-amine], for which, for the setting “Homo sapiens, T-cell”, the EC (2-fold response) fell in the range of 0.1 to 0.5 µM, the maximal fold induction is more than 2 and the pEC50 was 6.00 to 6.30.
Take `COc1cc2c(cc1Nc1ncc(Cl)c(-n3cc(S(N)(=O)=O)c4ccccc43)n1)CN(C)CC2` [Example 83, 1-(5-Chloro-2-((6-methoxy-2-methyl-1,2,3,4-tetrahydroisoquinolin-7-yl)amino)pyrimidin-4-yl)-1H-indole-3-sulfonamide]: under “Homo sapiens, T-cell”, the maximal fold induction is less than 2 and the pEC50 was 6.30 to 7.00.
For `COc1cc2c(cc1Nc1ncc(Cl)c(N3CC4(CC4)c4ccccc43)n1)CN(C)CC2` [Example 84, N-(5-chloro-4-(spiro[cyclopropane-1,3′-indolin]-1′-yl)pyrimidin-2-yl)-6-methoxy-2-methyl-1,2,3,4-tetrahydroisoquinolin-7-amine], in that order: less than 2 and 6.00 to 6.30.
Take `COc1cc2c(cc1Nc1ncc(Cl)c(N3CCc4cc(P(C)(C)=O)ccc43)n1)CN(C)CC2` [Example 86]: the “EC2x (nM)” value is listed as “+ (“+”, for greater than 1 μM)”. In addition, under “Homo sapiens, T-cell”, the maximal fold induction was more than 2 and the pEC50 is 6.30 to 7.00.
For the compound `COc1cc2c(cc1Nc1ncc(Cl)c(N3CC(CO)c4ccccc43)n1)CN(C)CC2` (centres unmarked) [Example 87], for the setting “Homo sapiens, T-cell”, the maximal fold induction was less than 2 and the pEC50 is 6.30 to 7.00.
